In patent US12286435B2, “Compound having benzo seven-membered ring structure, preparation method therefor, and use thereof” (BIONNA (BEIJING) MEDICAL TECHNOLOGY CO., LTD., priority 2019, dated 2025) one finds Ki and IC50 data, which are given here for four molecules.

pIC50, pKi: −log10 of the molar value.

The target in one test is BRD4 BD1 protein (Homo sapiens (Human), UniProt O60885). The test can be described thus: Fluorescence polarization binding affinity (Ki) with BRD4 BD1 protein. As to conditions: fluorescence polarization; Ki calculated from IC50.
Test [1] relates to breast cancer MDA-MB-231 cell line. The test can be described thus: Cell viability (CCK-8), breast cancer MDA-MB-231. Particulars: Homo sapiens, 96 h; MDA-MB-231 cells, 4 days, CCK-8, 50% inhibition of cell growth. Type of test: cell-based. The protocol:
(§1) 3. Determination of cell viability of the compound
(§2) The sample to be tested was dissolved with 100% dimethyl sulfoxide to prepare a 20 mM stock solution of the compound, which was diluted with 100% dimethyl sulfoxide to the highest compound concentration required for the experiment (2.5 mM).
(§3) First, 145 uL of a complete cell culture medium was added to wells B1-G1 of a 96-well flat-bottomed tansparent cell culture plate, and 100 uL of the complete medium was added to wells B2-G12, respectively. Then, 5 uL of the 2.5 mM solution of the compound was added to wells B1-D1 and E1-G1 respectively, and then diluted gradiently by 3-folds to B12-D12 and E12-G12 in sequence. Finally, 50 uL of the solution of the cells to be tested was added to each well, with about 3000-5000 cells per well, and a total volume of 150 uL per well.
(§4) In the experiment, in addition to the tested compound, two other control groups were set up: 1) a control group adding the cells and the complete medium, but without adding the compound; 2) a control group adding the complete medium only, without adding the cells and the compound. The 96-well plate was placed in a 37° C. cell culture incubator containing 5% carbon dioxide for 4 days, added with 15 uL of a CCK-8 reagent per well, and then incubated at 37° C. for 2-4 hours. The 96-well plate was read on a TECAN microplate reader, and the absorbance value at 450 nm wavelength was taken.
(§5) The effect of different concentrations of the compound on cell viability was calculated by the following equation: [absorption value of the experimental group−absorption value of pure cell culture medium without the cells or the compound]/[absorption value of the control group with the tumor cells but no testing compound−absorption value of pure cell culture medium without the cell or the compound]×100%.
(§6) The above data were precessed by software, and the IC50 value was the concentration of the compound corresponding to the 50% inhibition rate of cell growth.
(§7) Based on the above test method of the compound on cell viability, a variety of […] cancer cell lines were tested, using multiple myeloma MM.1S, breast cancer MDA-MB-231 and leukemia MV4-11 cell lines as exemples. Using this test method, the IC50 values of partial compounds in the examples of the present invention measured in multiple myeloma MM.1S, breast cancer MDA-MB-231 cell lines and leukemia MV4-11 cell lines were shown in Table 2.

A further test addresses BRD4 BD2 protein (Homo sapiens (Human), UniProt O60885). In words: Fluorescence polarization binding affinity (Ki) with BRD4 BD2 protein. As to conditions: fluorescence polarization; Ki calculated from IC50.
Test [2] relates to multiple myeloma MM.1S cell line. In words: Cell viability (CCK-8), multiple myeloma MM.1S. It counts as cell-based. As to conditions: Homo sapiens, MM1.S, 96 h, MM.1S cells, 4 days, CCK-8, 50% inhibition of cell growth. Summed up:
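Cells (about 3000-5000 per well) exposed to 3-fold serial dilutions of compound for 4 days at 37° C, 5% CO2. CCK-8 added 2-4 h, absorbance at 450 nm, viability normalised to untreated cells after medium-only blank subtraction; IC50 is concentration giving 50% growth inhibition.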

In test [3] the test system is leukemia MV4-11 cell line. In words: Cell viability (CCK-8), leukemia MV4-11. Type of test: cell-based. As to conditions: Homo sapiens, 96 h; MV4-11 cells, 4 days, CCK-8, 50% inhibition of cell growth. The protocol:
as §1, §2, §3, §4, §5, §6, §7

As for `Cc1nnn2c1-c1ccc(-c3cnn(C)c3)cc1C(Nc1ccc(Cl)cc1)CC2` (centres unmarked) [RA180, N-(4-chlorophenyl)-1-methyl-9-(1-methyl-1H-pyrazol-4-yl)-6,7-dihydro-5H-benzo[c][1,2,3]triazolo[1,5-a]azepin-7-amine], the figures for the pKi on BRD4 BD1 protein and on BRD4 BD2 protein were 7.47 and 8.12, respectively. Moreover, the results for the pIC50 in test [1] and in test [2] were 7.96 and 8.63, respectively.
As for `CCn1cc(-c2ccc3c(c2)C(Nc2ccc(Cl)cc2)CCn2nnc(C)c2-3)cn1` (centres unmarked) [RB05, N-(4-chlorophenyl)-9-(1-ethyl-1H-pyrazol-4-yl)-1-methyl-6,7-dihydro-5H-benzo[c][1,2,3]triazolo[1,5-a]azepin-7-amine], the pKi on BRD4 BD1 protein was 7.63; at BRD4 BD2 protein, 8.24. In addition, the pIC50 is 9.00 in test [1], above 10.00 in test [3] and 8.63 in test [2].
For `Cc1nnn2c1-c1ccc(-c3cnc4[nH]cnc4c3)cc1C(Nc1ccc(Cl)cc1)CC2` (centres unmarked) [RB43, N-(4-chlorophenyl)-9-(3H-imidazo[4,5-b]pyridin-6-yl)-1-methyl-6,7-dihydro-5H-benzo[c][1,2,3]triazolo[1,5-a]azepin-7-amine], the figures for the pKi on BRD4 BD1 protein and at BRD4 BD2 protein were 7.34 and 7.85, respectively. Also, the pIC50 in test [1] was 6.98; in test [2], 8.96.
The like results for `Cc1nnn2c1-c1ccc(-c3cn(C)nn3)cc1C(Nc1ccc(Cl)cc1)CC2` (centres unmarked) [RB48, N-(4-chlorophenyl)-1-methyl-9-(1-methyl-1H-1,2,3-triazol-4-yl)-6,7-dihydro-5H-benzo[c][1,2,3]triazolo[1,5-a]azepin-7-amine] were, in that order, 7.35, 7.78, 7.19 and 8.60.

As usually defined, the pKi is −log10 of the Ki, conventionally taken in molar units. A word on the pIC50: it is the IC50 on a negative log10 scale, so that one unit is a factor of ten.
